Consider 66 compounds from the supplement of paper PMC10290057.

Structures can show the parent of a compound that is named as a salt.
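Also: Luminescence-based viability readout, five doses per compound, normalized against on-plate DMSO and empty-well controls, followed by dose-response curve fitting for every drug.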

The assay relates to HCT116. The assay is described as follows: efficacy (fitted maximal change in viability relative to DMSO control); higher = less cytotoxic (negative = loss of viability). To be noted: 48 h.
Regarding `O=C(NCC(=O)N1CCCC1)Nc1ccc2cnccc2c1` [SGC-707], the efficacy is -18%.

As to `Cc1cc(C)cc(Oc2ccc(CNC(=O)[C@H](C)N)cc2C)c1` [SGC-2085], the efficacy is -101%.

Regarding `Cn1cc(-c2ccc3nnc(Sc4ccc5ncccc5c4)n3n2)cn1` [SGX-523], the efficacy is -6.72%.

On to `CC1(N)CCN(c2cnc(-c3cccc(Cl)c3Cl)c(N)n2)CC1` [SHP-099], for which the efficacy is -5.94%.

For the compound `Cc1cccc(-c2n[nH]cc2-c2ccc3ncccc3n2)n1` [SJN-2511], the efficacy is 6.89%.

For the compound `Oc1ccc(Nc2nc(-c3ccc(Cl)cc3)cs2)cc1` [SKI-II], the efficacy was -62.8%.

For the compound `Cc1ccc(NC(=O)Nc2nnc(Sc3ncnc4cc(OCCCN5CCOCC5)ccc34)s2)cc1` [SKLB4771], the efficacy was -24.1%.

Turning to `CC1OC(OC/2=C(/OC3=C(C(=CC(=C3)O)O)C2=O)C4=CC=C(O)C=C4)C(O)C(OC(C)=O)C1OC(C)=O` (stereo unspecified) [SL-0101-1], the efficacy came to 6.12%.

Regarding `O=C1NC(=O)/C(=C/c2cccc(C(F)(F)F)c2)S1` [SMI-4a], the efficacy was -22.5%.

In the case of `CC1(C)CC(=O)c2c(C(F)(F)F)nn(-c3ccc(C(N)=O)c(NC4CCC(O)CC4)c3)c2C1` (stereo unspecified) [SNX-2112], the efficacy was -53.8%.

For `CC1(C)CC(=O)c2c(C(F)(F)F)nn(-c3ccc(C(N)=O)c(NC4CCC(OC(=O)CN)CC4)c3)c2C1` (stereo unspecified) [SNX-5422], the efficacy was -57.9%.

With `Cc1c(C)n(Cc2ccc(-c3ccccc3C(=O)O)cc2)c2ccc(C(=O)N[C@@H](C)c3ccc([N+](=O)[O-])cc3)cc12` [SR-1664], the efficacy was found to be 14.2%.

With `Fc1cccc(-n2cnc3c(NCc4nc5ccc(F)c(F)c5[nH]4)nc(N4CCOCC4)nc32)c1` [SR-3029], the efficacy was -53.1%.

For `Cc1cc(C)c([S+](=O)([O-])N(CCc2cccc(Br)c2)Cc2ccc(-c3cccc([S+](C)(=O)[O-])c3)cc2)c(C)c1` [SR-9243], the efficacy is 15.4%.

As to `COCCCc1sc(-c2ccccc2)nc1C(=O)Nc1ccccc1-c1nc2cc(CN3CCCC3)cnc2s1` [SRT-3025], the efficacy amounted to 7.71%.

`CC1=C(F)C=CC(=C1)N2C(=O)\C=C/C3=C2C4=C([NH]C=C4)N=C3` [STK16-IN-1]: the efficacy was -45.7%.

Consider `Cc1c[nH]c(/C=C2\C(=O)Nc3ccccc32)c1CCC(=O)O` [SU-5402], for which the efficacy was -32.1%.

`CC(C)(C)NCC(O)c1ccc(O)c(CO)c1` (stereo unspecified) [Salbutamol sulfate]: the efficacy was -14.1%.

In the case of `OCc1ccccc1O[C@@H]1O[C@H](CO)[C@@H](O)[C@H](O)[C@H]1O` [Salicin], the efficacy is 14%.

Regarding `CC(C)=CCC/C(C)=C/CC/C(C)=C/CSc1ccccc1C(=O)O` [Salirasib], the efficacy was -28.8%.

As for `CNC(=O)CN1CCC(Oc2cc3c(Nc4cccc(Cl)c4F)ncnc3cc2OC)CC1` [Sapitinib], the efficacy is -49.3%.

With `OC(=O)\C1=C\N(C2=CC=C(F)C=C2)C3=C(C=C(F)C(=C3)N4CCNCC4)C1=O` [Sarafloxacin hydrochloride], the efficacy was 14%.

As for `C[C@@H](c1ccc2nccn2c1)n1nnc2ncc(-c3cnn(C)c3)nc21` [Savolitinib], the efficacy was -32.1%.

Regarding `N#C[C@@H]1C[C@@H]2C[C@@H]2N1C(=O)[C@@H](N)C12CC3CC(CC(O)(C3)C1)C2` [Saxagliptin], the efficacy is -9.01%.

With `COc1nc(-c2ccc3c(c2)OCO3)n(-c2ccc(NC(=O)CSc3ccccc3)cc2)n1` [Secin H3], the efficacy is -15.5%.

As for `Cc1ncc([N+](=O)[O-])n1CC(C)O` (stereo unspecified) [Secnidazole], the efficacy is -13.5%.

With `COc1cc(C[C@@H](CO)[C@H](CO)Cc2ccc(O)c(OC)c2)ccc1O` [Secoisolariciresinol], the efficacy was 9%.

For the compound `CC(C)[C@H](O)C(=O)N[C@@H](C)C(=O)N[C@@H]1C(=O)N(C)CCc2ccccc21` [Semagacestat], the efficacy is -9.53%.

Regarding `Cc1cc(C)c(/C=C2\C(=O)Nc3ccccc32)[nH]1` [Semaxanib], the efficacy was -29.1%.

For `C\C1=C(/C)C(=O)\C(=C(\C)C1=O)C(CCCCCC(O)=O)C2=CC=CC=C2` (stereo unspecified) [Seratrodast], the efficacy was -11.8%.

On to `CC(C)[C@](O)(c1ccc2cc(OC(F)F)c(OC(F)F)cc2c1)c1c[nH]nn1` [Seviteronel], for which the efficacy was -56.2%.

As for `CC(C)=CC[C@@H](O)C/1=C/C(=O)C2=C(O)C=CC(=C2C1=O)O` [Shikonin], the efficacy is -13.1%.

Turning to `CC(C)CC(N(C)C)C1(c2ccc(Cl)cc2)CCC1` (stereo unspecified) [Sibutramine hydrochloride], the efficacy is -45.3%.

Regarding `COc1cc([C@H]2Oc3cc([C@H]4Oc5cc(O)cc(O)c5C(=O)[C@@H]4O)ccc3O[C@@H]2CO)ccc1O` [Silybin], the efficacy is -13.3%.

Turning to `COC/1=C/[C@@H]2[C@@H]3CC4=C(C(=C(OC)C=C4)O)[C@]2(CCN3C)CC1=O` [Sinomenine], the efficacy was -20.7%.

In the case of `CO[C@H]1C[C@@H]2CC[C@@H](C)[C@@](O)(O2)C(=O)C(=O)N2CCCC[C@H]2C(=O)O[C@H]([C@@H](C)C[C@@H]2CC[C@@H](O)[C@H](OC)C2)CC(=O)[C@H](C)/C=C(\C)[C@@H](O)[C@@H](OC)C(=O)[C@H](C)C[C@H](C)/C=C/C=C/C=C/1C` [Sirolimus], the efficacy was -50.3%.

For `Cc1cc2c(cc1CC(=O)c1sccc1[S+](=O)([O-])Nc1onc(C)c1Cl)OCO2` [Sitaxentan], the efficacy is -43.1%.

For `O=C([O-])C(O)Cc1ccc(O)c(O)c1` (stereo unspecified) [Sodium Danshensu], the efficacy was -9.88%.

For the compound `OC(COC1=C2C(=O)\C=C(/OC2=CC=C1)C([O-])=O)COC3=C4C(=O)\C=C(/OC4=CC=C3)C([O-])=O` [Sodium cromoglycate], the efficacy is -6.55%.

`CC(C)OC(=O)[C@H](C)N[P@](=O)(OC[C@H]1O[C@@H](N2\C=C/C(=O)NC2=O)[C@](C)(F)[C@@H]1O)OC3=CC=CC=C3` [Sofosbuvir]: the efficacy is -5.68%.

In the case of `CC1(C)CN(C(=O)c2ccc(-c3cccc4nc(NC(=O)C5CC5)nn34)cc2)C1` [Solcitinib], the efficacy was -18.3%.

Turning to `CC(C)NCC(O)c1ccc(N[S+](C)(=O)[O-])cc1` (stereo unspecified) [Sotalol], the efficacy is -17.6%.

For the compound `C[C@H]1CN(C[C@@H](C)N1)C2=C(F)C3=C(C(=C2F)N)C(=O)\C(=C/N3C4CC4)C(O)=O` [Sparfloxacin], the efficacy is -10.7%.

On to `C[C@]12Cc3cn[nH]c3C[C@@H]1CC[C@@H]1[C@@H]2CC[C@@]2(C)[C@H]1CC[C@]2(C)O` [Stanozolol], for which the efficacy was -19.3%.

Turning to `CC[C@H](/C=C/[C@@H](C)[C@H]1CC[C@H]2[C@@H]3CC=C4C[C@@H](O)CC[C@]4(C)[C@H]3CC[C@]12C)C(C)C` [Stigmasterol], the efficacy came out at 11.5%.

`CN(N=O)C(=O)N[C@@H]1[C@@H](O)[C@H](O)[C@@H](CO)O[C@@H]1O` [Streptozocin]: the efficacy is -15.5%.

Consider `N#Cc1c(N(CC(=O)[O-])CC(=O)[O-])sc(C(=O)[O-])c1CC(=O)[O-]` [Strontium Ranelate], for which the efficacy was -15.5%.

As to `Cc1nnc(N[S+](=O)([O-])c2ccc(N)cc2)s1` [Sulfamethizole], the efficacy was -10.7%.

Take `O=C(O)c1cc(/N=N/c2ccc(S(=O)(=O)Nc3ccccn3)cc2)ccc1O` [Sulfasalazine]: the efficacy amounted to 8.3%.

Turning to `CC1=C(CC(=O)O)c2cc(F)ccc2/C1=C\c1ccc([S+](C)[O-])cc1` (stereo unspecified) [Sulindac], the efficacy is -20.4%.

On to `CN[C@@H]1Cc2cccc3[nH]c(=O)n(c23)C1` [Sumanirole maleate], for which the efficacy was -12.4%.

Take `CCOCC(O)COc1ccc(NC(=O)CC[S+](C)C)cc1` (stereo unspecified) [Suplatast tosylate]: the efficacy is -20.9%.

Regarding `Cc1ccc(C(=O)Nc2ccc([S+](=O)([O-])O)c3cc([S+](=O)([O-])O)cc([S+](=O)([O-])O)c23)cc1NC(=O)c1cccc(NC(=O)Nc2cccc(C(=O)Nc3cc(C(=O)Nc4ccc([S+](=O)([O-])O)c5cc([S+](=O)([O-])O)cc([S+](=O)([O-])O)c45)ccc3C)c2)c1` [Suramin sodium], the efficacy is -20.9%.

Consider `CNCC(O)c1ccc(O)cc1` (stereo unspecified) [Synephrine], for which the efficacy is -16.7%.

On to `CCOC(=O)C1=CCCCC1[S+](=O)([O-])Nc1ccc(F)cc1Cl` (stereo unspecified) [TAK-242], for which the efficacy is -34.7%.

In the case of `Cn1cc(-c2nc(N[C@@H]3CCCC[C@@H]3N)c(F)c3c2C(=O)NC3)cn1` [TAK-659], the efficacy is -31.1%.

Take `CN1C(=O)/C(=C(NC2=CC=C(I)C=C2F)\C3=C1\N=C/N(C[C@@H](O)CO)C3=O)F` [TAK-733]: the efficacy is -73.1%.

As to `C[N]1C2=C(SC(=C2)[S+](C)[O-])C\3=C1C(=O)N(CC4=CC(=CC=C4)N)\N=C3` (stereo unspecified) [TEPP-46], the efficacy worked out at 21.5%.

With `C[C@@H]1C\C2=C(CCC(=O)C2)/[C@H]3CC[C@@]4(C)[C@@H](CC[C@@]4(O)C#C)[C@H]13` [TIBOLONE], the efficacy is -7.38%.

In the case of `O=C(COCC(=O)N1CCN(C(c2ccccc2)c2ccccc2)CC1)Nc1ccc(Cl)cc1C(=O)O` [TM-5275], the efficacy was found to be 6.23%.

With `CC(C)(CNC(=O)c1cccc(-c2noc(C(F)(F)F)n2)c1)c1coc(-c2ccccc2)n1` [TMP-195], the efficacy was -21.4%.

As for `COC1=CC=C(C=C1)C(=O)C2CCN(CC2)CC(=O)N(CC3CC3)C\C4=N\C5=C(\COCC5)C(=O)N4` [TNKS-656], the efficacy is -13.6%.

Turning to `Nc1c2c(nc3ccccc13)CCCC2` [Tacrine hydrochloride], the efficacy was -50.9%.

Consider `CN(C(=O)c1ccc(F)cc1C(F)(F)F)C1CCN(c2nnc(-c3ccnn3C)c3ccccc23)CC1` [Taladegib], for which the efficacy was -25.6%.

For the compound `C[C@@H]1CN(Cc2ccc(F)cc2)[C@@H](C)CN1C(=O)c1cc2c(C(=O)C(=O)N(C)C)cn(C)c2cc1Cl` [Talmapimod], the efficacy was -32.8%.

With `Cc1coc2c1C(=O)C(=O)c1c-2ccc2c1CCCC2(C)C` [Tanshinone IIA], the efficacy is -14.6%.
